Test results taken from patent US20250177481A1, “SCO-spondin-derived polypeptides for enhancing synaptic transmission” (AXOLTIS PHARMA, priority 2021, published 2025).
“And” between values parts separate entries of the source, which are not always exact repeats. Equal values may be shown once. Positions of bridges follow the written chain, without caps; N, C: chain ends. No end group written: not given here.

What was measured:
[1] = system: scopolamine-induced spatial short-term working memory deficits in mice; assay: Y-maze spontaneous alternation in the scopolamine mouse model of amnesia; type: in vivo, Swiss mice
Method: Male Swiss mice, weighing 30-35 g, from JANVIER (Saint Berthevin, France), were housed in groups with access to food and water ad libitum, except during behavioral experiments. They were kept in a temperature and humidity-controlled animal facility on a 12 h/12 h light/dark cycle (lights off at 07:[…]). Mice were numbered by marking their tail with permanent markers. All animal procedures were conducted in strict adherence to the European Union directive of Sep. 22, 2010 (2010/63/UE). In each cage (n=6 per cage), treatment regimen was the same. Animals were tested in a random and blind manner.
Donepezil (DPZ) used as positive control was administered per os at a dose of 1 mg/kg once 1 h before the YM test.
Scopolamine was administered at a dose of 0.5 mg/kg by subcutaneous injection 30 minutes before the YM session.
After administration of compounds at different timepoints all animals were tested for spontaneous alternation performance in the YM, an index of spatial working memory. The YM was designed according to Itoh and collaborators (1993) and Hiramatsu and Inoue (1999) and is made of grey polyvinylchloride. Each arm is 40-cm long, 13-cm high, 3-cm wide at the bottom, 10-cm wide at the top, and converging at an equal angle. Each mouse was placed at the end of one arm and allowed to move freely through the maze during an 8-min session. The series of arm entries, including possible returns into the same arm, were checked visually. An alternation was defined as entries into all three arms on consecutive occasions. The number of maximum alternations is therefore the total number of arm entries minus two and the percentage of alternation was calculated as (actual alternations/maximum alternations)×100. Parameters included the percentage of alternation, called memory index, and total number of arm entries, called exploration index (Maurice et al., 1996, 1988; Meunier et al., 2006; Villard et al., 2009, 2011).
Animals showing an extreme behavior (alternation percentage <20% or >90% or number of arm entries <10) would have been discarded from the calculation. No animal was discarded accordingly.

[2] = system: Schaffer collateral-CA1 synaptic transmission in mouse hippocampal slices after OGD; assay: fEPSP recovery after OGD in hippocampal slices, treatment from the end of OGD or during recovery plateau (Example 8); type: cell-based, C57Bl6/J mice; conditions: for averaged normalized f-EPSP slope: NX218 250 μg/mL from the end of OGD, n=10 slices
Method: Two extra slices were also be recorded to evaluate a possible curative capacity of NX218 against hypoxia.
Animals: see Example 7. In total, 10 mice were used in this study. An additional mouse was used to obtain two extra slices for preliminary recordings (“test slices)”.
Mice brain slice preparation: see Example 7
Conditions of Example 7 are used, except:
Measurements of evoked field excitatory postsynaptic potential (fEPSP) recovery after OGD were continued for 120 min from TO (OGD initiation). Two “test slices” were also done according to the experimental design described above.
Oxygen-glucose deprivation: see Example 7. In this study, the mean OGD duration was 10.6±1.0 min. Data processing and statistical analysis: see Example 7.

[3] = system: AMPAr currents in hippocampal CA1 pyramidal neurons; assay: whole-cell patch-clamp, isolated AMPAr EPSCs evoked by Schaffer collateral stimulation (series 2); type: cell-based, C57Bl6/J mice; conditions: after 10 min wash-out of NX218 250 μg/mL (T30); mean of 10 neurons
Source text: Twelve (C57Bl6/J) male mice 4-5 weeks-old were obtained from Charles River, France and housed in an animal facility. Animal care was compliant with national and local Ethics committee recommendations. Sagittal hippocampal brain slices were obtained using standard brain slicing methods (approximately 6 slices per mouse) (Knobloch et al. 2007). Mice were anesthetized with isoflurane and then decapitated. Brain was dissected out of the cranium and immediately immersed in ice-cold freshly prepared aCSF containing: 124 mM NaCl, 3.75 mM KCl, 2 mM MgSO4, 2 mM CaCl2, 26.5 mM NaHCO3, 1.25 mM NaH2PO4, 10 mM glucose, continuously oxygenated (pH=7.4) for a total duration of 3-4 minutes. Acute slices (350 μm thick) were prepared using a vibratome (VT 1000S; Leica Microsystems, Bannockburn, IL). Sections were incubated in standard aCSF at room temperature for at least 1 h before recordings. […]
The signal was amplified with an Axopatch 200B amplifier (Molecular Devices, Union City, CA), digitized by a Digidata 1550 interface (Molecular Devices) and […]. Recordings were acquired using Clampex (Molecular Devices) and analyzed with Clampfit (Molecular Devices). […]

How did the “effect on scopolamine-induced spatial short-term working memory impairments (Y-maze)” value ([1]; 2.5 mg/kg i.p. (lowest tested dose) 24 h before the test) turn out when “W-S-G-W-S-S-C-S-R-S-C-G [NX218] (WSGWSSCSRSCG; disulfide 7-11 (inferred))” was run?
The value was “efficacy was already demonstrated”.

And the “effect on scopolamine-induced spatial short-term working memory impairments (Y-maze)” value ([1]; 5 mg/kg i.p. 2 h before the test, data not shown)?
Its value is “only partial”.

What about the “effect on scopolamine-induced spatial short-term working memory impairments (Y-maze)” value ([1]; 5 mg/kg i.p. 24 h before the test, data not shown) of the same substance?
Its value is “complete reversal effect”.

What about the “effect on scopolamine-induced spatial short-term working memory impairments (Y-maze)” value ([1]; 5 mg/kg i.p. 48 h before the test, data not shown) of the same substance?
Its value is “partially blocked”.

And the “effect on scopolamine-induced spatial short-term working memory impairments (Y-maze)” value ([1]; 10 mg/kg i.p. 48 h before the test, data not shown)?
Its value is “completely counteracted”.

And the “effect on scopolamine-induced spatial short-term working memory impairments (Y-maze)” value ([1]; 15 mg/kg i.p. once 48 h before the test, data not shown)?
The value was “partially blocked”.

And the “dose with maximum effect on scopolamine-induced memory impairments (Y-maze)” value ([1]; i.p. once 24 h before the test, bell-shaped dose-response curve)?
Its value is 10 mg/kg.

What about the “spontaneous alternance in Y-maze” value ([1]; scopolamine + 10 mg/kg i.p. 24 h before test, scopolamine alone 45, control 70, n=6, 10 mg/kg) of the same substance?
Its value is 71%.

And the “averaged normalized f-EPSP slope” value ([2]; 0-30 min after start of OGD, vehicle 28.497)?
Its value is 25.758 % of baseline.

And the “averaged normalized f-EPSP slope” value ([2]; 30-60 min after start of OGD, vehicle 53.456)?
The value was 52.556 % of baseline.

And the “averaged normalized f-EPSP slope” value ([2]; 60-90 min after start of OGD, vehicle 68.774)?
Its value is 74.616 % of baseline.

And the “averaged normalized f-EPSP slope” value ([2]; 90-120 min after start of OGD, vehicle 77.110)?
Its value is 88.0±1.9 % of baseline and 88.046 % of baseline.

What about the “shape of the f-EPSP recovery phase following OGD (curative effect)” value ([2]; NX218 250 μg/mL applied during recovery plateau, T=60 min or T=70 min after OGD initiation, preliminary, n=1 per timepoint) of the same substance?
Its value is “rising further toward baseline”.

What about the “averaged normalized f-EPSP slope” value ([2]; last 10 min (of 120 min) after start of OGD, vehicle 79.319) of the same substance?
Its value is 90.3±2.7 % of baseline and 90.340 % of baseline.

And the “Amplitude of evoked isolated AMPA excitatory postsynaptic currents” value [3]?
The value was 153 pA.
